Test results published in patent publication US20100204340A1 (priority 2009, published 2010).
In brackets after ≈: the same amount, converted by molar mass. Read-outs that look alike come from different tables or passages of the source.

Experiments:
[1] = test system: 3T3-L1 mouse adipocyte cells; test: Adipogenesis inhibitory assay (Oil Red-O staining); type: cell-based; settings: for IC50: Mus musculus, 3T3-L1, Oil Red-O, OD 492 nm, read-out: IC50, inhibition of adipogenesis; for Adipogenesis inhibitory potential relative to Resveratrol: times more effective / superior than resveratrol
Description: A common assay to measure adipocyte differentiation in cell culture is with the dye Oil Red-O, which is a lipid-soluble red dye. Since terminal differentiation of adipocytes is accompanied by the accumulation of great amounts of lipids in large cytoplasmic vesicles, a strong, bright, staining of the cytoplasm with this dye is a reliable indicator of adipocyte differentiation.
3T3-L1 mouse adipocyte cells are seeded at a density of 5000 cell/200 μl of adipocyte induction medium in a 96 well plate. After 48 hrs varying concentrations of the sample are added. After 72 hrs, the medium is changed to adipocyte progression medium along with the sample. The medium is similarly changed after another 48 hours. The plates are washed gently after 48 hrs with 100 μl of PBS. 100 μl of 10% formalin is used to fix the cells for 30 min keeping at RT. The cells are then washed twice with 60% isopropanol gently. 100 μl of clear Oil red O stain is added to the wells & kept for staining for 1 hr. The cells are then washed with 70% Ethanol twice, once with PBS and air dried. Then 100 μl of 4% triton×100 in isopropanol is added to all the wells covered tightly & kept it in a shaker for 20 min at […]. The OD reading is taken at 492 nm in microplate reader.
The results are expressed as IC50 values using Graphpad prism software. The percentage of inhibition of adipogenesis is calculated as follows,
Where C-absorbance due to adipogenesis in untreated cells T-absorbance due to adipogenesis in sample treated cells
Note: IC50 is the concentration required for 50% inhibition of adipogenesis. Lower IC50 indicates better efficacy.

SIRT1 polypeptide = target: T1, SIRT1 polypeptide (Homo sapiens, UniProt Q96EB6); test: SIRT 1 Direct fluorescent Screening Assay kit (Cayman); type: biochemical; settings: read-out: Percentage SIRT 1 modulation; for activation at 1 µg/mL: 1 μg/ml; for activation at 10 µg/mL: 10 μg/ml
T1 construct: purchased Cayman Chemical Company 10010401
T1 sequence (Q96EB6 1-747): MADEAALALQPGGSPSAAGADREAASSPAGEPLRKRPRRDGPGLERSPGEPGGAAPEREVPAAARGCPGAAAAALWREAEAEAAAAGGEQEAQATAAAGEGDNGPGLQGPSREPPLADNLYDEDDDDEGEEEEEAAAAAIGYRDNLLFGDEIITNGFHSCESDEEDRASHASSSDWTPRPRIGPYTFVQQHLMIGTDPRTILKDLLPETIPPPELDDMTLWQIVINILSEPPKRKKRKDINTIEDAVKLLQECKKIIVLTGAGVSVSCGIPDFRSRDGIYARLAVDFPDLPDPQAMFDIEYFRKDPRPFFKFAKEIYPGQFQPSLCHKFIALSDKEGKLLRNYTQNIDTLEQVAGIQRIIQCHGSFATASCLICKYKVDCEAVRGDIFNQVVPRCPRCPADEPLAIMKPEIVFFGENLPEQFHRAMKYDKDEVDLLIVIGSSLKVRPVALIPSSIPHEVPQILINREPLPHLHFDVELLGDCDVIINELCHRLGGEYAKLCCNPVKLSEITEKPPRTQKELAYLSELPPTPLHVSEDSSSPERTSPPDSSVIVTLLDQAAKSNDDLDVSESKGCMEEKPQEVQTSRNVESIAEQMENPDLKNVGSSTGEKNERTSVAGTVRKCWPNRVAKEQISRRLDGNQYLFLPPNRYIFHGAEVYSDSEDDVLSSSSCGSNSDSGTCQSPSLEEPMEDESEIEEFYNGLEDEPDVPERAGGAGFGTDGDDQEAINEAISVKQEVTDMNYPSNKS
Description: SIRT-1 activation/inhibition was measured using the SIRT 1 Direct fluorescent Screening Assay kit (Catalog No. 10010401) and instructions provided therein of Cayman Chemical Company, 1180 East Ellsworth Road, Ann Arbor, Mich. 48108 USA. (http://www.caymanchem.com/pdfs/10010401.pdf)

[2] = test system: Propionibacterium acnes ATCC 11827; test: Broth dilution method, inhibitory concentration (IC50, IC100); type: cell-based; settings: for inhibition at 41.6 µg/mL / inhibition at 83.3 µg/mL / inhibition at 166 µg/mL / inhibition at 332 µg/mL / inhibition at 498 µg/mL / IC50 / inhibition at 16.6 µg/mL: Cutibacterium acnes, ATCC11827
Text: Method: Broth dilution method to evaluate the inhibitory concentration (IC).
Materials • 1. Propionibacterium acnes ATCC: 11827 • 2. Physiological saline or Buffered peptone water (BPW). • 3. Reinforced clostridium medium (RCM) Hi-media • 4. Actinomyces broth (AC broth) Hi-media • 5. Anaerobic chamber. • 6. Gassing manifold Nitrogen, mixed gases. • 7. Spectrophotometer (600 nm to 625 nm). • 8. Sterile tubes • 9. Micro Pipette • 10. Sterile micro tips. • 11. (DMSO) dimethylsulphoxide
The strain Propionibacterium acnes (ATCC 11827) was obtained from ATCC. The inhibitory concentration (IC) of the given sample was determined by broth dilution method according to NCCLS guidelines. The IC50 was defined as that concentration of compound that reduced bacterial growth by 50% as determined spectrophotometrically. IC100 was defined as the lowest concentration of compound that inhibited bacterial growth by 100%. Resveratrol and 3-Hydroxypsterostilbene are water insoluble. Therefore samples were dissolved in DMSO and than added to Actinomyces broth to a final concentration of 0-500 mg/L. Twenty-four hour cultures of P.acnes were adjusted to 1×10^8 cfu/ml using McFarland standards and inoculated to Actinomycetes broth containing a specific concentration of compound. Controls containing just DMSO were also included in the test. Cultures were incubated anaerobically at 37° C. and read spectrophotometrically at 600 nm both at 24 h and 48 h incubation periods. IC50 and IC100 values were calculated from these observations.

[3] = 16.6 mg/L, 24 h, IC n = n % inhibition of bacterial growth
[4] = 16.6 mg/L, 48 h, IC n = n % inhibition of growth
[5] = 41.6 mg/L, 24 h, IC n = n % inhibition of growth
[6] = 41.6 mg/L, 48 h, IC n = n % inhibition of growth
[7] = 83.3 mg/L, 24 h, IC n = n % inhibition of growth
[8] = 83.3 mg/L, 48 h, IC n = n % inhibition of growth
[9] = 166 mg/L, 24 h, IC n = n % inhibition of growth
[10] = 166 mg/L, 48 h, IC n = n % inhibition of growth
[11] = 332 mg/L, 24 h, IC n = n % inhibition of growth
[12] = 332 mg/L, 48 h, IC n = n % inhibition of growth
[13] = P. acnes ATCC 11827, 24 h, read-out: IC50 24 h
[14] = P. acnes ATCC 11827, 48 h, read-out: IC50 48 h

Structure (SMILES)	IC50 [1]	activation at 1 µg/mL (SIRT1 polypeptide)	activation at 10 µg/mL (SIRT1 polypeptide)	OD @ 600 nm 24 h ([2]; 16.6 mg/L, 24 h, dilution 1:2)	OD @ 600 nm 48 h ([2]; 16.6 mg/L, 48 h, dilution 1:2)	OD @ 600 nm 24 h ([2]; 41.6 mg/L, 24 h, dilution 1:2)	OD @ 600 nm 48 h ([2]; 41.6 mg/L, 48 h, dilution 1:2)	Concentration showing 100% inhibition of Propionibacterium acnes ([2]; 24 hours of incubation)	Concentration showing 100% inhibition of Propionibacterium acnes ([2]; 48 hours of incubation)	inhibition at 41.6 µg/mL [2, 5]	inhibition at 41.6 µg/mL [2, 6]	inhibition at 83.3 µg/mL [2, 7]	inhibition at 83.3 µg/mL [2, 8]	inhibition at 166 µg/mL [2, 9]	inhibition at 166 µg/mL [2, 10]	inhibition at 332 µg/mL [2, 11]	inhibition at 332 µg/mL [2, 12]	IC50 [2, 13]	IC50 [2, 14]	IC100 24 h ([2]; P. acnes ATCC 11827, 24 h)	also measured
Oc1ccc(/C=C/c2cc(O)cc(O)c2)cc1 [Resveratrol, 3,4′,5-trihydroxy-trans-stilbene]	25 µM	138%	291%	1.027	0.884	0.777	0.593	332 mg/mL	498 mg/mL	17%	27%	55%	30%	75%	68%	100%	85%	83 µg/mL (≈ 364 µM)	120 µg/mL (≈ 526 µM)	332.0 mg/L	(IC) Inhibitory concentration [2, 3]: No inhibition; (IC) Inhibitory concentration [2, 4]: No inhibition; OD @ 600 nm 24 h ([2]; 83.3 mg/L, 24 h, dilution 1:2): 0.423; OD @ 600 nm 48 h ([2]; 83.3 mg/L, 48 h, dilution 1:2): 0.573; OD @ 600 nm 24 h ([2]; 166 mg/L, 24 h, dilution 1:2): 0.232; OD @ 600 nm 48 h ([2]; 166 mg/L, 48 h, dilution 1:2): 0.268; OD @ 600 nm 24 h ([2]; 332 mg/L, 24 h, dilution As such): 0.00; OD @ 600 nm 48 h ([2]; 332 mg/L, 48 h, dilution As such): 0.11; OD @ 600 nm 48 h ([2]; 498 mg/L, 48 h, dilution As such): 0.00; inhibition at 498 µg/mL ([2]; 498 mg/L, 24 h, IC n = n % inhibition of growth): 100%; inhibition at 498 µg/mL ([2]; 498 mg/L, 48 h, IC n = n % inhibition of growth): 100%; IC100 48 h ([2]; P. acnes ATCC 11827, 48 h): 498 mg/L
COc1cc(/C=C/c2ccc(O)c(O)c2)cc(OC)c1 [3-hydroxypterostilbene]	0.00483 µM	224%	669%	0.526	0.443	0.352	0.338	83.3 mg/mL	83 mg/mL	62%	62%	98%	98%	100%	100%	100%	100%	33.5 µg/mL (≈ 123 µM)	35.8 µg/mL (≈ 131 µM)	83.3 mg/L	Adipogenesis inhibitory potential relative to Resveratrol [1]: about 5000 times; Adipogenesis inhibitory potential relative to Resveratrol ([1]; listed as 3,5-dimethoxy-3,4′-dihydroxystilbene): 5000 times; OD @ 600 nm 24 h ([2]; 83.3 mg/L, 24 h, dilution As such): 0.047; OD @ 600 nm 48 h ([2]; 83.3 mg/L, 48 h, dilution As such): 0.073; inhibition at 16.6 µg/mL [2, 3]: 45%; inhibition at 16.6 µg/mL [2, 4]: 45%; IC100 48 h ([2]; P. acnes ATCC 11827, 48 h): 83.0 mg/L
